Source: patent publication US5468772A, “Tripterinin compound and method” (Pharmagenesis, Inc., priority 1993, dated 1995)

Tests used:
[1] = system: HT-2 cells; assay: Inhibition of IL-2 action: IL-2 stimulated HT-2 cell proliferation; assay type: cell-based
Experimental: Briefly, HT-2 cells were incubated in the presence of IL2, and in the presence of increasing concentrations of tripterinin. After 20 hours incubation, tritiated thymidine was added and the incubation carried out for an additional 4 hours. Cells were harvested and counted as described for PBL proliferation. […] Half maximal inhibition occurred at about 0.1 μg/ml.
The effect of tripterinin on the action of IL-2 was assessed by measurement of the compound's ability to inhibit IL-2 stimulated growth of the IL-2 dependent cell line HT-2, a well-established biological assay of IL-2 action (O'Gara). HT-2 cells were cultured in 75 cm^2 (Corning) tissue culture flasks in RPMI 1640 medium containing 10% fetal bovine serum (Hyclone), 50 μM 2-mercaptoethanol (Fisher), 10 U/ml recombinant human IL-2 (Cetus), 20 mM HEPES, 2 mM glutamine, 100 U/ml penicillin and 100 μg/ml streptomycin. Cells were passaged every 2 days. For experiments, HT-2 cells were centrifuged at 180×g for 10 minutes, washed twice with 10 ml of IL-2 free culture medium and resuspended in RPMI 1640 medium prepared as above, except containing 5% fetal bovine serum. Final cell concentration was 1×10^4 /well. Cultures were incubated with varying concentrations of the tripterinin (95% air/5% CO2, 37° C.) for 20 hours. […] Cells were harvested and counted as described for the PBL proliferation assay.

[2] = system: IL2; assay: IL-2 production by PHA stimulated human PBLs (ELISA); assay type: cell-based; settings: 24 h
Experimental: (§1) The effect of tripterinin on the production of the cytokines IL-1b, IL2, IL-6, IFNγ, and TNFα was assessed by measurement of the concentration of these cytokines in PHA stimulated human PBL cultures. Cytokine levels were measured by standard ELISA methods using commercially available kits, as detailed in Example 6. Briefly, assay buffer was added to each of the wells of a microtiter plate containing pre-bound anti-cytokine antibody, followed by addition of standard or sample solution, diluted appropriately for the cytokine concentration measured, followed by a second reporter-labeled antibody specific against the anti-cytokine antibody. […]
(§2) Cytokine measurements were carried out using commercially available ELISA assay kits (R&D Systems), in accordance with the supplier's protocols. In brief, 100 μl of the assay buffer supplied was added to each of the wells of a microtiter plate containing pre-bound anti-cytokine antibody, followed by 100 μl of standard or sample solution, diluted appropriately for the concentration range measured. […]
(§3) Following two hours incubation, the plates were washed four times with assay buffer, and the second antibody, anti-anti-cytokine-horseradish peroxidase (HRP), was added to each well in a volume of 200 μl. […] Optical density was determined using a Molecular Devices microtiter plate reader.

[3] = system: IFNγ; assay: IFNγ production by PHA stimulated human PBLs (ELISA); assay type: cell-based; settings: 24 h
Experimental: as §1, §2, §3

[4] = system: IL-1b; assay: IL-1b production by PHA stimulated human PBLs (ELISA); assay type: cell-based; settings: 0.7 and 3.13 μg/ml tripterinin, 24 h
Experimental: as §1, §2, §3

[5] = system: human PBLs; assay: Cytotoxicity, MTT reduction, human PBLs; assay type: cell-based; settings: up to 10 μg/ml, highest tested, 24 h
Experimental: (§4) Potential cytotoxicity of tripterinin was assessed by measurement of the effect of the compound on reduction of MTT (3-[4,5-Dimethylthiazol-2-yl]-2,5-diphenyltetrazolium bromide) by cultured cells, an index of cellular respiration and a sensitive assay for the detection of cytotoxicity (Green, et al.). Toxicity was evaluated in vitro in human PBLs and in mouse thymocytes, as detailed in Example 7. Sodium azide was used as a cytotoxic control. Cytotoxicity was also assessed using the standard method of trypan blue dye staining.
Potential cytotoxicity of tripterinin was assessed by measurement of the compound's effect on the reduction of MTT (3-[4,5-Dimethylthiazol-2-yl]-2,5-diphenyltetrazolium bromide) by cultured cells. MTT, a yellow-colored compound, is reduced by mitochondrial enzymes to form a purple crystalline reduction product (formazan), providing an index of cellular respiration as well as a sensitive assay for cytotoxicity (Green, et al.).
Cytotoxicity was assessed in cultured human PBLs and mouse thymocytes. […] (to solubilize the formazan crystals, the MTT reduction product), optical density was determined at 570-650 nm in a Molecular Devices microtiter plate reader. Data are expressed as the ratio of the optical density of the tripterinin treated sample to that of untreated controls. […]

[6] = system: cultured human PBLs and mouse thymocytes; assay: Cytotoxicity, trypan blue vital dye staining; assay type: cell-based; settings: up to 10 μg/ml
Experimental: as §4
Cytotoxicity was assessed in cultured human PBLs and mouse thymocytes. A stock solution of MTT (Sigma), 5 mg MTT/ml phosphate buffered saline, pH 7.4, was prepared and stored in the dark at 4° C. Following 21 hours incubation under conditions identical to those above, 25 μl of MTT solution was added to each culture well. After an additional 3 hour incubation, the experiment was terminated by addition of a solution of 10% sodium dodecyl sulfate in 0.01N HCl. Following overnight incubation at 37° C. (to solubilize the formazan crystals, the MTT reduction product), optical density was determined at 570-650 nm in a Molecular Devices microtiter plate reader. Data are expressed as the ratio of the optical density of the tripterinin treated sample to that of untreated controls. […] The standard method of trypan blue vital dye staining was also used to assess toxicity.

[7] = Solubility of crystalline tripterinin in organic solvents; assay type: physicochemical; settings: methylene chloride or acetone

In the case of `C[C@]12CCC[C@]3(COC1=O)[C@@H]2CC[C@@]12C[C@@H](CC[C@]13O)[C@](C)(O)C2` [tripterinin], the “fold inhibition of IL-2 induced DNA synthesis” value ([1]; concentration range 0 to 0.78 μg/ml) is reported as greater than 10 fold, the “fold decrease in IL-2 induced HT-2 cell proliferation (thymidine incorporation)” value ([1]; tripterinin 0.4 μg/ml) is reported as “more than 10 fold” and the “decrease in IL2 production” value ([2]; 0.7 μg/ml tripterinin) is reported as 96%. The “decrease in IL2 production” value ([2]; 3.13 μg/ml tripterinin) was 96%, the “decrease in IFNγ production” value ([3]; 0.7 μg/ml tripterinin) was 84% and the “decrease in IFNγ production” value ([3]; 3.13 μg/ml tripterinin) was 80%. For the same compound, the “effect on IL-1B production” value [4] was “did not significantly affect”, the “cytotoxicity (MTT reduction)” value [5] was “No significant toxicity” and the “cytotoxicity (MTT reduction)” value ([5]; listed as Tripterinin) was “no significant toxicity”. For the same compound, the “cytotoxicity (trypan blue staining)” value [6] was “consistent with those from the MTT reduction assay”, the “cytotoxicity (trypan blue staining)” value ([6]; listed as Tripterinin) was “no significant toxicity” and the “dissolution of crystalline compound” value [7] was “dissolved easily”.
